The source of these data is article PMC10600239, “Selective MCL-1 inhibitor ABBV-467 is efficacious in tumor models but is associated with cardiac troponin increases in patients” (Communications Medicine, 2023).

One test addresses BCL-2 (Homo sapiens, UniProt P10415). Put plainly: Time-resolved FRET binding assay. The note with it: TR-FRET. The protocol:
(§1) Binding affinities for MCL-1, BCL-2, BCL-XL, BCL-W, and BCL2-A1 were determined using a time-resolved fluorescence resonance energy transfer (FRET) assay. Test compounds were serially diluted in DMSO starting at […] (20× starting concentration; 100% DMSO followed by a 1:10 dilution of the compound DMSO plate into assay buffer); 10 µL of the compound in 10% DMSO was then transferred into a 384-well plate (low-volume Corning #3673 assay plate). Glutathione S-transferase (GST)-tagged recombinant BCL-2, BCL-XL, MCL-1, BCL-W, or BCL2-A1 protein (1 nM each) were mixed with 100 nM Oregon Green™-labeled f-BAK peptide probe and 1 nM Tb-labeled anti-GST antibody were mixed. Then 10 µL of a 2× protein/probe/antibody mix was added to each well of increasing concentrations of test compound in assay buffer (20 mM potassium phosphate, pH 7.6, 50 mM NaCl, 1 mM ethylenediaminetetraacetic acid disodium salt dihydrate, 0.05% pluronic acid F-68, 1 mM DL-dithiothreitol) at room temperature (final concentrations listed in Supplementary Table S2). The samples were then mixed on a shaker for 1 min and incubated for an additional 1 h at room temperature. For each assay plate, a probe/antibody and protein/antibody/probe mixture were included as a negative and a positive control, respectively. Fluorescence was measured on the EnVision™ (Perkin Elmer) using a 340/35-nm excitation filter and 520/525- (F-Bak) and 495/510-nm (Tb-labeled anti-glutathione S-transferase [GST] antibody) emission filters. Dissociation constants were determined using Wang’s equation[35]. The time-resolved FRET assay can be performed in the presence of varying concentrations of human serum to determine apparent half-maximal inhibitory concentration after serum protein binding.

A further test has as its target T1, BCL-W (Homo sapiens, UniProt Q92843).
T1 sequence (Q92843 1-193): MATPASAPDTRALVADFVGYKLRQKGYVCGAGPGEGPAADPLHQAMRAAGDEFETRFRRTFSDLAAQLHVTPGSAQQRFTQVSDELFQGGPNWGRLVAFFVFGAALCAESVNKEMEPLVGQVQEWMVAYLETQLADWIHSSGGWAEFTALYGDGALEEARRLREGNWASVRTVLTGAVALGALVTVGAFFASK
Kind of test: Time-resolved FRET binding assay. On the procedure:
as §1

The next test addresses BCL-XL (Homo sapiens, UniProt Q07817). Put plainly: Time-resolved FRET binding assay. On the procedure: as §1
A further test concerns the target T2, BCL2-A1 (Homo sapiens, UniProt Q16548).
T2 sequence (Q16548 1-175): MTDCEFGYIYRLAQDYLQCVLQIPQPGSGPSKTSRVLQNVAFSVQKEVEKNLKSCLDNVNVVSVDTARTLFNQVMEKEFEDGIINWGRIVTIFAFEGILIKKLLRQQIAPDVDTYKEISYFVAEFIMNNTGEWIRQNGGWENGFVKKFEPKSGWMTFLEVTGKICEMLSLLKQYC
Put plainly: Time-resolved FRET binding assay. To be noted: TR-FRET, individual determinations; read-out: Individual Ki, BCL2-A1. The protocol: as §1

The target of test [1] is off-target receptors, ion channels, and transporters (Homo sapiens, UniProt O14965). Put plainly: Off-target profiling (Supplementary Data 1). To be noted: TR-FRET Kinome; Invitrogen A-1169612.6 .006(Subs Conc).
Chain of off-target receptors, ion channels, and transporters (Homo sapiens, UniProt O14965) (O14965 whole entry): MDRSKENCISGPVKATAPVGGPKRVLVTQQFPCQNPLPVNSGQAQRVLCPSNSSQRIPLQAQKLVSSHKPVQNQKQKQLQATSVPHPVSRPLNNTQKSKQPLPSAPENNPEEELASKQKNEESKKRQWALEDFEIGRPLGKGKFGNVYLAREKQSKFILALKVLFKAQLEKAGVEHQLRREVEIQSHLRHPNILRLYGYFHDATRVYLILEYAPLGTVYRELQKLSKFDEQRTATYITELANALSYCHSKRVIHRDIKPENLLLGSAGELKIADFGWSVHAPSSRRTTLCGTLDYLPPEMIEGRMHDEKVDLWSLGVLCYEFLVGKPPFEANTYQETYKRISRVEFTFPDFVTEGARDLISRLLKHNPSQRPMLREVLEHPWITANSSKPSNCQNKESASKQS
Test [2] concerns the target off-target receptors, ion channels, and transporters (Homo sapiens, UniProt O43293). Kind of test: Off-target profiling (Supplementary Data 1). The note with it: TR-FRET Kinome; Invitrogen A-1180691.2 .1(Subs Conc).
Test [3] addresses off-target receptors, ion channels, and transporters (Homo sapiens, UniProt O75716). Kind of test: Off-target profiling (Supplementary Data 1). To be noted: TR-FRET Kinome; Invitrogen A-1213250.2 .0125(Subs Conc).
Test [4] concerns the target off-target receptors, ion channels, and transporters (Homo sapiens, UniProt P00533). Put plainly: Off-target profiling (Supplementary Data 1). To be noted: TR-FRET Kinome; Invitrogen A-1224127.6 .1(Subs Conc).
The target of test [5] is off-target receptors, ion channels, and transporters (Homo sapiens, UniProt P05771). Put plainly: Off-target profiling (Supplementary Data 1). To be noted: TR-FRET Kinome, SignalChem A-1167389.7 .05(Subs Conc).
Chain of off-target receptors, ion channels, and transporters (Homo sapiens, UniProt P05771) (P05771 2-671): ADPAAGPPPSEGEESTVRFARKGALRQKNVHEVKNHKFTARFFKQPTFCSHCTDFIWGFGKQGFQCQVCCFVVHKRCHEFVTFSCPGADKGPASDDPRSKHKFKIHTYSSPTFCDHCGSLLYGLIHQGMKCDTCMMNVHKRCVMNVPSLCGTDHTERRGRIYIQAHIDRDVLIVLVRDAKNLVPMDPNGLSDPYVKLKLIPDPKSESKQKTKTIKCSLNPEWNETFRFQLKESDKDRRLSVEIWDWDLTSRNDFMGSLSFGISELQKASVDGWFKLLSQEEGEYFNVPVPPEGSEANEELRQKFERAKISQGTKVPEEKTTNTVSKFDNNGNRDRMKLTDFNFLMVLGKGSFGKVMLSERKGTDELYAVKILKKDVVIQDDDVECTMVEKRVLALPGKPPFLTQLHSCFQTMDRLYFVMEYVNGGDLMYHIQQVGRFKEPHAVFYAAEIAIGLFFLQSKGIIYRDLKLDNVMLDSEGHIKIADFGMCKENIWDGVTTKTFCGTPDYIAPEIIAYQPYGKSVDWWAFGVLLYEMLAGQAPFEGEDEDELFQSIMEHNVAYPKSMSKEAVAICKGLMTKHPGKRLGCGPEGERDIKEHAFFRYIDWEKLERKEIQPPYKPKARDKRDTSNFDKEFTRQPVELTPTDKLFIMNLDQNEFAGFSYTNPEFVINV
Test [6] deals with off-target receptors, ion channels, and transporters (Homo sapiens, UniProt P07333). Put plainly: Off-target profiling (Supplementary Data 1). To be noted: TR-FRET Kinome; Invitrogen A-1167389.7 .004(Subs Conc).
Chain of off-target receptors, ion channels, and transporters (Homo sapiens, UniProt P07333) (P07333 20-972): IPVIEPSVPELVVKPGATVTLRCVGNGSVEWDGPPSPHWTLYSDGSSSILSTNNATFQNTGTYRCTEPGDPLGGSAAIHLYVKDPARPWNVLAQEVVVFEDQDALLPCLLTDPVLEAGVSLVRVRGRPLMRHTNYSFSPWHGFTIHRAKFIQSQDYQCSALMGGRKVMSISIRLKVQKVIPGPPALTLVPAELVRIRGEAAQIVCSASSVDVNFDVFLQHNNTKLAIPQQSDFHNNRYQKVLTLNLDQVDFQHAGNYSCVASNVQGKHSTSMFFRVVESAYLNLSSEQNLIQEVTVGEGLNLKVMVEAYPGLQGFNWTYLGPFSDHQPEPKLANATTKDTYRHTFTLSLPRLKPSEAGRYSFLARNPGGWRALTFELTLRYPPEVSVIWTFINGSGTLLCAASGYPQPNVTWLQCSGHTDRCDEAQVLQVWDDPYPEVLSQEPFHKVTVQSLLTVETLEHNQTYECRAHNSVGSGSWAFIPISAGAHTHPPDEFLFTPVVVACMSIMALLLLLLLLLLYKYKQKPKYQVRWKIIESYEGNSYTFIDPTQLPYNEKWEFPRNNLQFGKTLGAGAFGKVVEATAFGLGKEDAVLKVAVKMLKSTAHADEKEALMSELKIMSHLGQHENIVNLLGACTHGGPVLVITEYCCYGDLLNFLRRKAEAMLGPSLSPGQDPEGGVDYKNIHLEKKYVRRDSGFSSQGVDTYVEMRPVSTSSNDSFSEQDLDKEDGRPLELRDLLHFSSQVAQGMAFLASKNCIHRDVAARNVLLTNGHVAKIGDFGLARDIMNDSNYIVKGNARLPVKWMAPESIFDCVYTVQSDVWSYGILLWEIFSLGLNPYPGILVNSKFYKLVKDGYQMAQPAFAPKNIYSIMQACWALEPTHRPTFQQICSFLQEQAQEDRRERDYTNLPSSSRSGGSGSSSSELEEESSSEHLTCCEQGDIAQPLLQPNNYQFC
The target in test [7] is off-target receptors, ion channels, and transporters (Homo sapiens, UniProt P24530). Kind of test: Off-target profiling (Supplementary Data 1).
Chain of off-target receptors, ion channels, and transporters (Homo sapiens, UniProt P24530) (P24530 27-442): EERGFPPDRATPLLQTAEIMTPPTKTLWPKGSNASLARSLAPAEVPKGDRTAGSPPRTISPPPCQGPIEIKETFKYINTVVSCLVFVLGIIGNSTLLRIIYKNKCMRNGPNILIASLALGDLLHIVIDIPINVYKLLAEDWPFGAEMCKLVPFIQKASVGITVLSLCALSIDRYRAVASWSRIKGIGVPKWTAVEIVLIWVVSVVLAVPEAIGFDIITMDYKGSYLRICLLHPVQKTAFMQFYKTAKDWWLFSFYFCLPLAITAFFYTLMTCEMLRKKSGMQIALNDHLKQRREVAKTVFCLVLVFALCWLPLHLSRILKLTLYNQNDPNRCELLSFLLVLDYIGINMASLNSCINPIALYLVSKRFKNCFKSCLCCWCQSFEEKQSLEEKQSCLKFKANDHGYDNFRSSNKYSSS
Test [8] deals with off-target receptors, ion channels, and transporters (Homo sapiens, UniProt P28482). Put plainly: Off-target profiling (Supplementary Data 1). The note with it: TR-FRET Kinome; Invitrogen A-1224127.6 .05(Subs Conc).
Test [9] concerns the target off-target receptors, ion channels, and transporters (Homo sapiens, UniProt P51955). Kind of test: Off-target profiling (Supplementary Data 1). To be noted: TR-FRET Kinome; Invitrogen A-1196581.2 .025(Subs Conc).
Test [10] concerns the target off-target receptors, ion channels, and transporters (Homo sapiens, UniProt P57059). Put plainly: Off-target profiling (Supplementary Data 1). The note with it: TR-FRET Kinome; Invitrogen A-1167389.7 .005(Subs Conc).
In test [11] the target is off-target receptors, ion channels, and transporters (Homo sapiens, UniProt Q06187). Put plainly: Off-target profiling (Supplementary Data 1). The note with it: TR-FRET Kinome; Invitrogen A-1167389.7 .2(Subs Conc).
Test [12] addresses off-target receptors, ion channels, and transporters (Homo sapiens, UniProt Q9H4B4). Kind of test: Off-target profiling (Supplementary Data 1). The note with it: TR-FRET Kinome; Invitrogen A-1224615.7 .2(Subs Conc).

SMILES strings stand for the structures. Several values for one entry are separate records, joined by “and”; a condition that tells them apart may be missing. Identical values can stand only once. Like-named read-outs stand apart in the source and are kept apart here. Some results are limits rather than exact numbers.

Chain of BCL-XL (Q07817 whole entry): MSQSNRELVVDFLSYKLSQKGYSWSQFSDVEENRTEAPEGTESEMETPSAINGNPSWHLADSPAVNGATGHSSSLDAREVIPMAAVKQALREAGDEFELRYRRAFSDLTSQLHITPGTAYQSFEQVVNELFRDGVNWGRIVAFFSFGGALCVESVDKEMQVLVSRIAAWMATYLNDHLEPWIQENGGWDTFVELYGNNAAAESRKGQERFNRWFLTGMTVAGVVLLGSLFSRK
Chain of BCL-2 (P10415 whole entry): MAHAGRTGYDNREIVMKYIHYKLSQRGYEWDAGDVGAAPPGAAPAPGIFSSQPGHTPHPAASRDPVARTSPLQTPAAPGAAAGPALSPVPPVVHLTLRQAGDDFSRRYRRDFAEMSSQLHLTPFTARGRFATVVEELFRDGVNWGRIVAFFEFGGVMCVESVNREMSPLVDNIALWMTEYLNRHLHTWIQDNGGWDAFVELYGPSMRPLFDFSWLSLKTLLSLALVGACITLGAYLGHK
Chain of off-target receptors, ion channels, and transporters (Homo sapiens, UniProt Q9H4B4) (Q9H4B4 whole entry): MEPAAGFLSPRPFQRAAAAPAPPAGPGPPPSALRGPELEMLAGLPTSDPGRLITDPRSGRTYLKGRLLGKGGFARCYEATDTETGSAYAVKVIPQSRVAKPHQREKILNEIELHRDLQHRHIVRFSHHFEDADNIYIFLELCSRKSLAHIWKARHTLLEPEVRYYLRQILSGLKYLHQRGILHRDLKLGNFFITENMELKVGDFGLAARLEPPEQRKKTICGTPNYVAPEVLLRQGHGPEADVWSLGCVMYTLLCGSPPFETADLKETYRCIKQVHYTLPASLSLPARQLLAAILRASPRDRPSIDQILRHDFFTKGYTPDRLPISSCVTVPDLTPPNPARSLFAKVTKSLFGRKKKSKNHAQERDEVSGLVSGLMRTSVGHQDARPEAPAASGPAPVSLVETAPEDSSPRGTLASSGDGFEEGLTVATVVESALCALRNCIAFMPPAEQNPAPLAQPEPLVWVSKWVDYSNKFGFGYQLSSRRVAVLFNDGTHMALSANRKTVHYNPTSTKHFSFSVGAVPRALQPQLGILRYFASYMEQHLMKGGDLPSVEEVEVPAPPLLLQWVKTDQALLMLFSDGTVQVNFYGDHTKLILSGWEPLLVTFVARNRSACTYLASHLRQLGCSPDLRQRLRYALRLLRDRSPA
Chain of off-target receptors, ion channels, and transporters (Homo sapiens, UniProt P00533) (P00533 25-1210): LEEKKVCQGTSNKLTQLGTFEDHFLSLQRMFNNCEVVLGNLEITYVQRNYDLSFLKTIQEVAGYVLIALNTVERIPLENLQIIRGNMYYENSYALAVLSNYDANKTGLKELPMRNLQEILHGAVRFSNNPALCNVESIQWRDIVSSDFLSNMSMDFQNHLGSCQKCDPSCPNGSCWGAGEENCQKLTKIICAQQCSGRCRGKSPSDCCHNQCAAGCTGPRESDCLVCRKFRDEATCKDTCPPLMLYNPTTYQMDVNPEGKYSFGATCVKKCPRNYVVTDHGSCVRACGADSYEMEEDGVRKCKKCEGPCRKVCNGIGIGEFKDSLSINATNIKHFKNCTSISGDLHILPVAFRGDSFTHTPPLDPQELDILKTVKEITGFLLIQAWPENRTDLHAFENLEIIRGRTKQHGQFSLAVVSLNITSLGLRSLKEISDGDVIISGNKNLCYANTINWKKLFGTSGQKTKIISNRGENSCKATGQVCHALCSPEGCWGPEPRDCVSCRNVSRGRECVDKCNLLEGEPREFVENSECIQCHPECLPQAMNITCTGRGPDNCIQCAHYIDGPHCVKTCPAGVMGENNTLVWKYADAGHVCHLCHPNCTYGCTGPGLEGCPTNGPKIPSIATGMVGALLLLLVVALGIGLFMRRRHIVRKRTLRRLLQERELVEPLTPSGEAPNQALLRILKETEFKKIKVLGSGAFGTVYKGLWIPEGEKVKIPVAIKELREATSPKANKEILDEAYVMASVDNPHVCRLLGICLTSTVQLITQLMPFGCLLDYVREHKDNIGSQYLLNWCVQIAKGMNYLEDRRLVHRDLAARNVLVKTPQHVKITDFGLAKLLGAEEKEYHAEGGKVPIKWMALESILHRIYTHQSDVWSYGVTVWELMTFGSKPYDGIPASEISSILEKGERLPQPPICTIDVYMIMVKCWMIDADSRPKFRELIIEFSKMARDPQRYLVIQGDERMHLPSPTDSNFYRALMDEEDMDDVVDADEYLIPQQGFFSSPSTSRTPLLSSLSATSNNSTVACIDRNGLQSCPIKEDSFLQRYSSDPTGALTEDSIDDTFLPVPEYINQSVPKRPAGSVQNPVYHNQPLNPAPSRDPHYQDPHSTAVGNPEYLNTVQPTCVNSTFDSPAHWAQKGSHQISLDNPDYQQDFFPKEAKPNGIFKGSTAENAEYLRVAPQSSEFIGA

Consider `Cc1c(Cl)c2c(Cl)c(C)c1-c1c(-c3ccc(F)cc3)sc3ncnc(c13)O[C@@H](C(=O)O)Cc1cc(ccc1OCc1ccnc(-c3ccc(OC[C@H]4COCCO4)cc3)n1)OC[C@@H](CN1CCN(C)CC1)O2` [ABBV-467], for which the Ki was above 0.642 µM on BCL-2 (arithmetic mean, read-out: Arithmetic Mean Ki, BCL-2); above 0.642 µM on BCL-2 (individual determinations, read-out: Individual Ki, BCL-2); above 247 nM on BCL-W (TR-FRET, arithmetic mean, read-out: Arithmetic Mean Ki, BCL-W); above 247 nM at BCL-W (TR-FRET, individual determinations, read-out: Individual Ki, BCL-W); above 247 nM at BCL-W (read-out: TR-FRET, Ki, nM BCL-W); above 376 nM at BCL-XL (TR-FRET, arithmetic mean, read-out: Arithmetic Mean Ki, BCL-XL). Besides, the Ki at BCL-XL (TR-FRET, individual determinations, read-out: Individual Ki, BCL-XL) was above 376 nM; at BCL-XL (read-out: TR-FRET, Ki, nM BCL-XL), above 376 nM; at BCL2-A1, 402 nM and > 468 nM (2×); in [5] (read-out: PKCbeta2 - Ki), above 3.9 µM. The molecule also yielded an Aurora2 - IC50 in test [1] above 10 µM. For the same molecule, the Zipk - IC50 in [2] was above 10 µM. The STK16 - IC50 in test [3] was above 10 µM. In test [4], this molecule displayed an EGFR - IC50 above 10 µM. Moreover, in test [5] (read-out: PKCbeta2 - IC50), the IC50 is above 10 µM. The same molecule displayed a CSF1R - IC50 in [6] above 10 µM. In addition, the ETB CHO Human - EC50 in test [7] (Bioprofiling 6pt Ag) was above 10 µM. The molecule further registered an ETB CHO Human - IC50 in test [7] (Bioprofiling 6pt Antag, BQ-3020) above 10 µM. In addition, in test [8], the Erk2 - IC50 is above 10 µM. Moreover, in test [9], the Nek2 - IC50 is above 10 µM. The SIK1 - IC50 in test [10] was above 10 µM. In [11], this molecule registered a BTK - IC50 above 10 µM. In [12], this molecule gave a Plk3 - IC50 above 10 µM.
